Experimental data published in patent US20010051602A1, “Methods for increasing ApoE levels for the treatment of neurodegenerative disease” (priority 1997, published 2001).

Assays:
[1] = test system: ApoE; experiment: astrocyte screening assay: secreted ApoE in rat type 1 astrocyte cultures; type: cell-based; settings: for levels of extracellular (secreted) ApoE: astrocyte screening assay
From the text: Other culture systems which may be used include human culture systems of primary cells derived from human tissue or immortalized cell lines of nerve tissue origin such as the human astrocyte cell line, AsCH-7 (Bobryshev et al., 1995). In addition, novel cell lines from patients with various apoE genotypes may be used, as well as cell lines from patients suffering or predisposed to suffer from any of the neurodegenerative diseases described herein. Adult spinal cord from post-mortem patients with any of the above diseases may be used as a source for deriving cell lines of nerve tissue origin. One method of immortalizing cells from these patients is to infect primary tissue with a replication-deficient retrovirus containing DNA sequences encoding the SV40 large T antigen (Whittemore et al., 1994). Another method is to derive immortal human-human hybrid cell lines that express phenotypic characteristics of primary oligodendrocytes or astrocytes by fuising a 6-thioguanine-resistant mutant of the human rhabdomyosarcoma RD cell line with adult human nerve tissue by a lectin-enhanced polyethylene glycol procedure (McLaurin et al., 1995). Other methods for immortalizing cells derived from primary human nerve tissue could include the use of chemical carcinogens or radiation. […] Antibodies to ApoE allow for the design of a high throughput assay using an immunoassay detection method.
(§1) To verify this working hypothesis, we have examined the effect of various concentration of tacrine on ApoE synthesis and secretion in brain cells in culture. FIG. 5 illustrates the effect of tacrine on ApoE secretion in rat type 1 astrocyte cultures exposed (for 8 hours) to physiological and pharmacological concentrations of the drug. […] Experimental methods used to monitor ApoE levels are described in Bertrand et al., Mol. Brain Res. 33:174-178 (1995).

[2] = test system: ApoE; settings: AD subjects treated with tacrine for several months, N = 4; untreated Alzheimer 0.36
Description: as §1

[3] = test system: Alzheimer's disease; settings: Alzheimer's patients treated for very long periods; cited from earlier work

Row | Compound | levels of extracellular (secreted) ApoE [1] | ApoE secretion in astrocytes ([1]; rat type 1 astrocyte cultures exposed for 8 hours, 2 uM, concentration typically found in CSF of treated AD patients) | ApoE Concentration In the Cerebrospinal Fluid (CSF), Mean [2] | delay of institutionalization [3]
1 | CCCCCCCNC(=O)Oc1ccc2c(c1)[C@]1(C)CCN(C)[C@@H]1N2C [heptylphysostigmine] | increase | – | – | –
2 | COc1cc2c(cc1OC)C(=O)C(CC1CCN(Cc3ccccc3)CC1)C2 (stereo not drawn) [donepezil] | no effect | – | – | –
3 | Nc1c2c(nc3ccccc13)CCCC2 [tacrine] | increase | increases | 0.41 mg/dL | more than 1.5 years
